Reference: publication PMC3961306, “Comparison of the Cancer Gene Targeting and Biochemical Selectivities of All Targeted Kinase Inhibitors Approved for Clinical Use” (PLoS ONE, 2014)

How the values were obtained:
Experiment in all cases: Kinase profiling in a biochemical assay panel (mobility shift assays and ELISA), %-inhibition at 1 μM; selectivity entropy
[1] = biological target: T1, panel of more than 300 wild-type and mutant kinases (313 kinase panel) (Homo sapiens, UniProt Q13976)
T1 sequence (Q13976 1-671): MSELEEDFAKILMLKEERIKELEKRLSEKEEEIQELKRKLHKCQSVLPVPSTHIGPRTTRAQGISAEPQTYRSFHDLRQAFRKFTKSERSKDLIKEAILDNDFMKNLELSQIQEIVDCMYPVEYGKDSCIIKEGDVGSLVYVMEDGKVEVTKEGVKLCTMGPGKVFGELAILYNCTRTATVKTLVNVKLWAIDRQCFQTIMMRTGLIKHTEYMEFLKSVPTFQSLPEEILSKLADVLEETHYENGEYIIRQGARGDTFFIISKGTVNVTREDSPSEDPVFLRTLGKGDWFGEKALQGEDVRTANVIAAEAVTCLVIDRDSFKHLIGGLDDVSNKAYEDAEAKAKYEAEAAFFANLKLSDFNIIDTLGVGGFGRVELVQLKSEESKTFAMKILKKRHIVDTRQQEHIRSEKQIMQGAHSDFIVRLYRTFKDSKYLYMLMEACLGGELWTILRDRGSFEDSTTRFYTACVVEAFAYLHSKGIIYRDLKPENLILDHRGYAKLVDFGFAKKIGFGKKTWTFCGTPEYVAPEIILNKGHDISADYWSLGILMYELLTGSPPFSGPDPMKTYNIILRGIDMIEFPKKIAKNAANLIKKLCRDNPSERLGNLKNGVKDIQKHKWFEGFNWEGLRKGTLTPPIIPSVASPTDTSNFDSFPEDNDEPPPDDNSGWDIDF

[2] = biological target: T2, panel of more than 300 wild-type and mutant kinases (313 kinase panel) (Homo sapiens, UniProt Q96KB5)
T2 sequence (Q96KB5 1-322): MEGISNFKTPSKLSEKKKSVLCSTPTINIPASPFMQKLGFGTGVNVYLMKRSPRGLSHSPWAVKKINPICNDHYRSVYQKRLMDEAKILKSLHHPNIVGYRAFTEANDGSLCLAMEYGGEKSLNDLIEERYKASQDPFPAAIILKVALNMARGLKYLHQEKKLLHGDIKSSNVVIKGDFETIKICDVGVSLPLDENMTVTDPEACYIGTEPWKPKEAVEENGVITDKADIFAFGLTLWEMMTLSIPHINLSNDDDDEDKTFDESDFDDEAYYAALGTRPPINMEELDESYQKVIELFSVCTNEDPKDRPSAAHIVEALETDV

[3] = biological target: T3, panel of more than 300 wild-type and mutant kinases (313 kinase panel) (Homo sapiens, UniProt Q9NRM7)
T3 sequence (Q9NRM7 1-1088): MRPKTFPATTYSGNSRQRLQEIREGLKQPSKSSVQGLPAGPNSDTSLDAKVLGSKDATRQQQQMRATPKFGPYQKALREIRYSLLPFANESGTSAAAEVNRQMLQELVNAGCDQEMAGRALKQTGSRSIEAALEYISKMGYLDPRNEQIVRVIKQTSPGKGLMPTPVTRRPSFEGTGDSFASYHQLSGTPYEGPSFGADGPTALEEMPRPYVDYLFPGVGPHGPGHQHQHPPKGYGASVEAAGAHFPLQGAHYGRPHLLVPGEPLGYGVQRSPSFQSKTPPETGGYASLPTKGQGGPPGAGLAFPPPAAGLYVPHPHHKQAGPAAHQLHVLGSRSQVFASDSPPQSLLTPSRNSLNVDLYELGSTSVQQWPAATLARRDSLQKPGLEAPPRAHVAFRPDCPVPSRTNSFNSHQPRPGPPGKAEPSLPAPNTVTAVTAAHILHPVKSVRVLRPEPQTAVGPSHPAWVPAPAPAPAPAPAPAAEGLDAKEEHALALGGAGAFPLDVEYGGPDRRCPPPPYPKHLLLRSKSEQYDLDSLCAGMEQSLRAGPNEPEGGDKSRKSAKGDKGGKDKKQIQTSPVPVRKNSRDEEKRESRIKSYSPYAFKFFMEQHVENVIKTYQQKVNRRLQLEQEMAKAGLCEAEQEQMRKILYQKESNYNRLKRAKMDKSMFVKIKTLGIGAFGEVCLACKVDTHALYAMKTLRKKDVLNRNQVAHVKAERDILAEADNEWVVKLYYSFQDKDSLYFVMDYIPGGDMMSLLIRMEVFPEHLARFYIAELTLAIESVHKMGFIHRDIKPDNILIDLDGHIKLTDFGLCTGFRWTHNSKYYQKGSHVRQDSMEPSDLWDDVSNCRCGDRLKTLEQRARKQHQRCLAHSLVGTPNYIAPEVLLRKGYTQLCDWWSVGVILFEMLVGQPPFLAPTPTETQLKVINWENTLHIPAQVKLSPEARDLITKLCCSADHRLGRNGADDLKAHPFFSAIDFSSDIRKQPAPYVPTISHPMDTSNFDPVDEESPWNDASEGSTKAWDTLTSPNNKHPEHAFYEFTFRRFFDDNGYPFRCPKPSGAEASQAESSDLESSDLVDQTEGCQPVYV

[4] = biological target: panel of more than 300 wild-type and mutant kinases (313 kinase panel) (Homo sapiens, UniProt P53779)
Sequence of panel of more than 300 wild-type and mutant kinases (313 kinase panel) (Homo sapiens, UniProt P53779) (P53779 whole entry, change not shown): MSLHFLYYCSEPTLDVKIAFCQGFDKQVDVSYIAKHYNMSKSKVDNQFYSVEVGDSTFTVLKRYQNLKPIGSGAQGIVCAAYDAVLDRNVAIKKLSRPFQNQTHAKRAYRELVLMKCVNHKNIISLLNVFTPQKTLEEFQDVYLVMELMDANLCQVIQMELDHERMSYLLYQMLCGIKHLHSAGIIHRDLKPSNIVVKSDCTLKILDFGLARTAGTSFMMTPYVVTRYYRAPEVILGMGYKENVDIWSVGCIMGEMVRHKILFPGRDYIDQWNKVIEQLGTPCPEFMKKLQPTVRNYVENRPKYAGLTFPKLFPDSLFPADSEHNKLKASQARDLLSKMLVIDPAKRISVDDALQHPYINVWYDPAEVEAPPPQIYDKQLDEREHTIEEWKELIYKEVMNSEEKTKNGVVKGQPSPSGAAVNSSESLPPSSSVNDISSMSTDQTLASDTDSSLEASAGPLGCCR

SMILES | %-inhibition of PGK ([1]; kinase PGK, 1 μM) [%] | %-inhibition of PBK ([2]; kinase PBK, 1 μM) [%] | %-inhibition of LATS2 ([3]; kinase LATS2, compound at 1 μM) [%] | %-inhibition of JNK3 ([4]; kinase JNK3, compound at 1 μM) [%] | %-inhibition of PGK ([1]; 1 µM) [%] | %-inhibition of PBK ([2]; 1 µM) [%] | %-inhibition of LATS2 ([3]; 1 µM) [%] | %-inhibition of JNK3 ([4]; 1 µM) [%]
C[C@@H](Oc1cc(-c2cnn(C3CCNCC3)c2)cnc1N)c1c(Cl)ccc(F)c1Cl [crizotinib] | -2.6 | -14 | -6 | -1.87 |  |  |  | 
CC(C)(C)c1nc(-c2cccc(NS(=O)(=O)c3c(F)cccc3F)c2F)c(-c2ccnc(N)n2)s1 [dabrafenib] |  | 12 | 0.57 | 5.59 |  |  |  | 
COc1cc2c(Nc3ccc(Br)cc3F)ncnc2cc1OCC1CCN(C)CC1 [vandetanib] | -3.59 | -21 | -8 | -0.407 |  |  |  | 
O=S(=O)(c1cccc2cnccc12)N1CCCNCC1 [fasudil] | 44 | -2.33 | 22 | -4 |  |  |  | 
C#Cc1cccc(Nc2ncnc3cc(OCCOC)c(OCCOC)cc23)c1 [erlotinib] |  |  |  |  | 1.68 | 4.3 | -8 | 22
COc1cc2nccc(Oc3ccc(NC(=O)C4(C(=O)Nc5ccc(F)cc5)CC4)cc3)c2cc1OC [cabozantinib] | -3 | -4.29 | -5.61 | -2 |  |  |  | 
Cc1ccc(C(=O)Nc2ccc(CN3CCN(C)CC3)c(C(F)(F)F)c2)cc1C#Cc1cnc2cccnn12 [ponatinib] | -0.866 | -14 | 16 |  |  |  |  | 
CCCS(=O)(=O)Nc1ccc(F)c(C(=O)c2c[nH]c3ncc(-c4ccc(Cl)cc4)cc23)c1F [vemurafenib] | -4.33 | -12 | -2.28 | 2.85 |  |  |  | 
Cc1cn(-c2cc(NC(=O)c3ccc(C)c(Nc4nccc(-c5cccnc5)n4)c3)cc(C(F)(F)F)c2)cn1 [nilotinib] |  | -8 | -72 | 39 | -13 |  |  | 
CS(=O)(=O)CCNCc1ccc(-c2ccc3ncnc(Nc4ccc(OCc5cccc(F)c5)c(Cl)c4)c3c2)o1 [lapatinib] |  | 6 | -8 | 11 | -1 |  |  | 
CNC(=O)c1cc(Oc2ccc(NC(=O)Nc3ccc(Cl)c(C(F)(F)F)c3)c(F)c2)ccn1 [regorafenib] | -7 | -29 | -9.47 | 5 |  |  |  | 
Cc1nc(Nc2ncc(C(=O)Nc3c(C)cccc3Cl)s2)cc(N2CCN(CCO)CC2)n1 [dasatinib] |  |  | -7 |  |  |  |  | 
Cc1ccc(Nc2nccc(N(C)c3ccc4c(C)n(C)nc4c3)n2)cc1S(N)(=O)=O [pazopanib] | -3 | -5 | -0.465 |  |  |  |  | 
N#CC[C@H](C1CCCC1)n1cc(-c2ncnc3[nH]ccc23)cn1 [ruxolitinib] | 14 | -19 | 37 | -3 |  |  |  | 
CO[C@H]1C[C@@H]2CC[C@@H](C)[C@@](O)(O2)C(=O)C(=O)N2CCCC[C@H]2C(=O)O[C@H]([C@H](C)C[C@@H]2CC[C@@H](OCCO)[C@H](OC)C2)CC(=O)[C@H](C)/C=C(\C)[C@@H](O)[C@@H](OC)C(=O)[C@H](C)C[C@H](C)/C=C/C=C/C=C/1C [everolimus] | -6.44 | -10 | -13 | -4.31 |  |  |  | 
CC(=O)Nc1cccc(-n2c(=O)n(C3CC3)c(=O)c3c(Nc4ccc(I)cc4F)n(C)c(=O)c(C)c32)c1 [trametinib] | -1.31 | -3.79 | 1.87 | -2.37 |  |  |  | 
COc1cc(Nc2c(C#N)cnc3cc(OCCCN4CCN(C)CC4)c(OC)cc23)c(Cl)cc1Cl [bosutinib] | -3.22 | -24 | 28 |  |  |  |  | 
CN(C)C/C=C/C(=O)Nc1cc2c(Nc3ccc(F)c(Cl)c3)ncnc2cc1O[C@H]1CCOC1 [afatinib] |  | -3 |  |  |  |  |  | 
CO[C@H]1C[C@@H]2CC[C@@H](C)[C@@](O)(O2)C(=O)C(=O)N2CCCC[C@H]2C(=O)O[C@H]([C@H](C)C[C@@H]2CC[C@@H](OC(=O)C(C)(CO)CO)[C@H](OC)C2)CC(=O)[C@H](C)/C=C(\C)[C@@H](O)[C@@H](OC)C(=O)[C@H](C)C[C@H](C)/C=C/C=C/C=C/1C [temsirolimus] | -5.57 | -9 | -4.56 | -1.22 |  |  |  | 
